Laboratory results from ChEMBL document CHEMBL1152891, “Design of novel aminopyrrolidine factor Xa inhibitors from a screening hit” (Eur J Med Chem, 2009).
Converted amounts (≈) assume the structure as drawn.

Legend:
[1] = Lipophilicity, log D of the compound; type: physicochemical; conditions: octanol/water
[2] = Aqueous solubility of the compound; type: physicochemical
[3] = Volume of distribution at steady state in rat at 0.5 mg, iv; type: ADME, organism-based; conditions: in vivo, read-out: Vdss
[4] = Tmax in rat at 1 mg, po; type: ADME, organism-based; conditions: in vivo
[5] = Permeability across cell membrane; type: ADME; conditions: not told; read-out: permeability
[6] = Oral bioavailability in rat at 1 mg, po; type: ADME, organism-based; conditions: in vivo
[7] = Volume of distribution at steady state in rat at 1 mg, iv; type: ADME, organism-based; conditions: in vivo, read-out: Vdss

In the case of `CN1CCC(N2CCN(C(=O)Cn3cnc(NC(=O)c4ccc(Cl)s4)n3)CC2)CC1`, the logD [1] is reported as -0.5 and the solubility ([2]; aqueous, read-out: solubility) is reported as > 600 µg/mL.

For `O=C(Cc1csc(NC(=O)c2ccc(Cl)s2)n1)Nc1ccc(-n2ccccc2=O)cc1F`, the logD [1] was > 3 and the solubility ([2]; aqueous, read-out: solubility) was < 1 µg/mL.

In the case of `CN1CCC(N2CCN(C(=O)Cc3csc(NC(=O)c4ccc(Cl)s4)n3)CC2)CC1`, the logD [1] is reported as 1 and the solubility ([2]; aqueous, read-out: solubility) is reported as > 620 µg/mL.

In the case of `CN1CCC(N2CCN(C(=O)Cc3csc(NC(=O)c4ccc(Cl)cc4)n3)CC2)CC1`, the logD [1] is reported as 0.6 and the solubility ([2]; aqueous, read-out: solubility) is reported as > 620 µg/mL.

For `O=C(Cn1nnc(NC(=O)c2ccc(Cl)s2)n1)Nc1ccc(-n2ccccc2=O)cc1F`, the logD [1] was 2.4 and the solubility ([2]; aqueous, read-out: solubility) was < 1 µg/mL.

For `CN1CCC(N2CCN(C(=O)Cn3ccc(NC(=O)c4ccc(Cl)s4)n3)CC2)CC1`, the logD [1] was 0.1 and the solubility ([2]; aqueous, read-out: solubility) was > 601 µg/mL.

Compound `O=C(CN1C[C@H](NC(=O)c2ccc(Cl)s2)[C@@H](O)C1)Nc1ccc(-n2ccccc2=O)cc1F` has a Vd [3] of 1.1 L/kg, a Tmax [4] of 15 min and a solubility ([2]; buffer) of 516 µg/mL (≈ 1050 µM). For the same compound, the Papp [5] was 1.5 ×10⁻⁶ cm/s and the bioavailability [6] was 38%.

In the case of `O=C(Nc1nc(CC(=O)N2CCN(CC(=O)N3CCCC3)CC2)cs1)c1ccc(Cl)s1`, the logD [1] is reported as 2.1 and the solubility ([2]; aqueous, read-out: solubility) is reported as > 640 µg/mL.

`O=C(CN1CC[C@@H](NC(=O)c2ccc(Cl)s2)C1)Nc1ccc(-n2ccccc2=O)cc1F` gave a logD [1] of 2.3 and a solubility ([2]; aqueous, read-out: solubility) of 197 µg/mL (≈ 415 µM).

For `O=C(CN1C[C@H](NC(=O)c2ccc(Cl)s2)[C@@H](OCCO)C1)Nc1ccc(-n2ccccc2=O)cc1F`, the Tmax [4] was 15 min, the logD [1] was 1.6 and the solubility ([2]; buffer) was > 713 µg/mL. For the same compound, the Vd [7] was 1.1 L/kg, the Papp [5] was 0.4 ×10⁻⁶ cm/s and the bioavailability [6] was 16%.

In the case of `O=C(Cn1ccc(NC(=O)c2ccc(Cl)s2)n1)Nc1ccc(-n2ccccc2=O)cc1F`, the logD [1] is reported as > 3 and the solubility ([2]; aqueous, read-out: solubility) is reported as < 1 µg/mL.

`O=C(CN1CC[C@H](NC(=O)c2ccc(Cl)s2)C1)Nc1ccc(-n2ccccc2=O)cc1F` showed a logD [1] of 2.3 and a solubility ([2]; aqueous, read-out: solubility) of 166 µg/mL (≈ 350 µM).

`O=C(Cn1cnc(NC(=O)c2ccc(Cl)s2)n1)Nc1ccc(-n2ccccc2=O)cc1F` gave a Vd [3] of 0.3 L/kg, a Tmax [4] of 66 min and a logD [1] of 2.4. It also gave a solubility ([2]; aqueous, read-out: solubility) of 1 µg/mL (≈ 2.11 µM), a Papp [5] of 0.9 ×10⁻⁶ cm/s and a bioavailability [6] of 10%.

For `O=C(Nc1nc(CC(=O)N2CCN(CC(=O)N3CCCC3)CC2)cs1)c1ccc(Cl)cc1`, the logD [1] was 2.2 and the solubility ([2]; aqueous, read-out: solubility) was > 580 µg/mL.

In the case of `O=C(Cc1csc(NC(=O)c2ccc(Cl)cc2)n1)Nc1ccc(-n2ccccc2=O)cc1F`, the logD [1] is reported as > 3 and the solubility ([2]; aqueous, read-out: solubility) is reported as < 1 µg/mL.
